From ChEMBL document CHEMBL4340545, “Identification of potent farnesoid X receptor (FXR) antagonist showing favorable PK profile and distribution toward target tissues: Comprehensive understanding of structure-activity relationship of FXR antagonists” (Bioorg Med Chem, 2019)

Key:
Huh-7 = experiment: Cytotoxicity against human HuH7 cells assessed as reduction in cell viability incubated for 24 hrs by MTT assay; format: cell-based; details: Huh-7, 24 h
Bile acid receptor [1] = target: T1, Bile acid receptor (Homo sapiens, UniProt Q96RI1); experiment: Antagonist activity at human FXR expressed in Huh7 cells assessed as inhibition of CDCA-induced FXR response element driven luciferase activity after 24 hrs; format: cell-based
T1 sequence (Q96RI1 whole entry): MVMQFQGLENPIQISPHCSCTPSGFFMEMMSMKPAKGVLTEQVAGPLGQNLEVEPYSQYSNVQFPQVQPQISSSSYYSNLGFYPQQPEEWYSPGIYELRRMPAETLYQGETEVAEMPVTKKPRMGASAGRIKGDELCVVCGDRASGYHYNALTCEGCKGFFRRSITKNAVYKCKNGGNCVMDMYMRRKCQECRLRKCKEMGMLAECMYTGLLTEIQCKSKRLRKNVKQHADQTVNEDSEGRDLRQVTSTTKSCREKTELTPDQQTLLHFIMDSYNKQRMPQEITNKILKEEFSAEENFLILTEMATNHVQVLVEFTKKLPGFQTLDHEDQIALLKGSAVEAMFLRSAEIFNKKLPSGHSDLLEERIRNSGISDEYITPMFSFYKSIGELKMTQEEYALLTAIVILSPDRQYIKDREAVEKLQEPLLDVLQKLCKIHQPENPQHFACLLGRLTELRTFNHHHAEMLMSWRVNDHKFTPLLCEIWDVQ

Bile acid receptor [2] = target: T1, Bile acid receptor; experiment: Antagonist activity at GST-tagged FXR LBD (unknown origin) assessed as inhibition of GW4064-induced fluorecein-labeled SRC2-2 coactivator recruitment by Lanthascreen TR-FRET assay
[3] = AUC (0 to 360 mins) in Sprague-Dawley rat at 1 mg/ml/kg, iv dissolved in 10% HP-beta-CD by LC-MS/MS analysis; format: ADME, organism-based; set-up: dose 1 mg/ml/kg, time < 6 hr, route intravenous; details: in vivo, 1 mg/kg
[4] = Terminal half life in Sprague-Dawley rat at 1 mg/ml/kg, iv dissolved in 10% HP-beta-CD measured after 60 to 360 min after administration; format: ADME, organism-based; details: in vivo, 1 mg/kg
[5] = Ratio of drug concentration in ileum to plasma of Sprague-Dawley rat at 30 mg/kg, po dissolved in 40% HP-beta-CD measured after 360 mins by LC-MS/MS analysis; format: ADME, organism-based
[6] = Drug excretion in Sprague-Dawley rat urine at 1 mg/ml/kg, iv dissolved in 10% HP-beta-CD by LC-MS/MS analysis; format: ADME, organism-based; details: 1 mg/kg, read-out: Drug excretion
[7] = Ratio of drug concentration in liver to plasma of Sprague-Dawley rat at 30 mg/kg, po dissolved in 40% HP-beta-CD measured after 360 mins by LC-MS/MS analysis; format: ADME, organism-based
[8] = Volume of distribution at steady state in Sprague-Dawley rat at 1 mg/ml/kg, iv dissolved in 10% HP-beta-CD; format: ADME, organism-based; details: in vivo, 1 mg/kg, read-out: Vdss
[9] = Tmax in Sprague-Dawley rat at 30 mg/5 ml/kg, po dissolved in 40% HP-beta-CD; format: ADME, organism-based; details: in vivo, 30 mg/kg
[10] = Drug concentration in liver of Sprague-Dawley rat at 30 mg/kg, po dissolved in 40% HP-beta-CD measured after 360 mins by LC-MS/MS analysis; format: ADME, organism-based; details: read-out: Drug uptake
[11] = Drug concentration in ileum of Sprague-Dawley rat at 30 mg/kg, po dissolved in 40% HP-beta-CD measured after 360 mins by LC-MS/MS analysis; format: ADME, organism-based; details: read-out: Drug uptake
[12] = AUC (0 to 360 mins) in Sprague-Dawley rat at 30 mg/5 ml/kg, po dissolved in 40% HP-beta-CD by trapezoidal method; format: ADME, organism-based; set-up: time < 6 hr, dose 5 ml/kg, route oral; details: in vivo, 30 mg/kg
[13] = Oral bioavailability in Sprague-Dawley rat at 30 mg/5 ml/kg dissolved in 40% HP-beta-CD; format: ADME, organism-based; details: in vivo, 30 mg/kg
[14] = Cmax in Sprague-Dawley rat at 30 mg/5 ml/kg, po dissolved in 40% HP-beta-CD; format: ADME, organism-based; set-up: dose 5 ml/kg, route oral; details: in vivo, 30 mg/kg

Structure (SMILES)	IC50 (Huh-7) [nM]	IC50 (Bile acid receptor [1]) [nM]	IC50 (Bile acid receptor [2]) [nM]	also measured
Cc1ccc2nc([C@H](CC3CCN(C(=O)NC(C)C)CC3)N3C(=O)CN(c4ccc(Oc5ccccc5)cc4)C3=O)n(C)c2c1	> 100000	18.3	1500	–
CCN(CC)C(=O)c1ccc(C[C@@H](c2nc3ccc(C)cc3n2C)N2C(=O)CN(c3ccc(Oc4ccccc4)cc3)C2=O)cc1	> 100000	1100	2800	–
Cc1ccc2nc([C@H](CC3CCN(C(=O)C(C)C)CC3)N3C(=O)CN(c4ccc(Oc5ccc(Cl)cc5)cc4)C3=O)n(C)c2c1	> 100000	9.3	27	–
Cc1ccc2nc([C@H](CC3CCN(C(=O)C(C)C)CC3)NC(=O)c3ccc(Oc4ccccc4)cc3)n(C)c2c1	> 100000	> 20000	> 400000	–
Cc1ccc2nc([C@H](Cc3ccc(C(=O)NC(C)C)cc3)N3C(=O)CN(c4ccc(Oc5ccccc5)cc4)C3=O)n(C)c2c1	> 100000	2690	38700	–
Cc1ccc2nc([C@H](CC3CCN(C(=O)C(C)C)CC3)N3C(=O)CN(c4ccc(Oc5ccccc5)cc4)C3=O)n(-c3ccc(F)cc3)c2c1	> 100000	978	2900	–
Cc1ccc2nc([C@H](Cc3ccccc3)N3C(=O)CN(c4ccc(Oc5ccccc5)cc4)C3=O)n(C)c2c1	> 100000	81	> 400000	–
Cc1ccc2nc([C@H](Cc3ccc(C(N)=O)cc3)N3C(=O)CN(c4ccc(Oc5ccccc5)cc4)C3=O)n(C)c2c1	> 100000	6240	27300	–
Cc1ccc2nc([C@H](CC3CCN(C(=O)C(C)C)CC3)N3C(=O)CN(c4ccc(OC5CCCCC5)cc4)C3=O)n(C)c2c1	64300	53	180	–
Cc1ccc2nc([C@@H](CC3CCN(C(=O)C(C)C)CC3)N3C(=O)CN(c4ccc(Oc5ccccc5)cc4)C3=O)n(C)c2c1	> 100000	41	2700	–
Cc1ccc2nc([C@H](CC3CCN(S(=O)(=O)C(C)C)CC3)N3C(=O)CN(c4ccc(Oc5ccccc5)cc4)C3=O)n(C)c2c1	> 100000	59.8	126000	–
Cc1ccc2nc([C@H](CC3CCN(C(=O)C(C)C)CC3)NC(=O)Nc3ccc(Oc4ccccc4)cc3)n(C)c2c1	> 100000	> 20000	> 400000	–
Cc1ccc2nc([C@H](CC3CCN(C(=O)C(C)C)CC3)N3C(=O)CN(c4ccc(Oc5ccccc5)cc4)C3=O)n(CC(C)C)c2c1	> 100000	2.4	330	–
COc1ccc(Oc2ccc(N3CC(=O)N([C@@H](CC4CCN(C(=O)C(C)C)CC4)c4nc5ccc(C)cc5n4C)C3=O)cc2)cc1	> 100000	< 0.001	7	AUC(0-t) at 6 h [3]: 292 ng·h/mL; half-life [4]: 1.37 h; Kp at 6 h [5]: 13; dose excreted [6]: 0.23%; Kp at 6 h [7]: 15; Vd [8]: 3.86 L/kg; Tmax [9]: 2 h; concentration at 6 h [10]: 1540 ng/g; concentration at 6 h [11]: 1370 ng/g; AUC(0-t) at 6 h [12]: 1580 ng·h/mL
Cc1ccc2nc([C@H](Cc3ccc(C#N)cc3)N3C(=O)CN(c4ccc(Oc5ccccc5)cc4)C3=O)n(C)c2c1	> 100000	781	7100	–
Cc1ccc2nc([C@H](CC3CCN(C(=O)C(C)C)CC3)N3CCN(c4ccc(Oc5ccccc5)cc4)C3=O)n(C)c2c1	> 100000	799	4800	–
Cc1ccc2nc([C@H](CC3CCN(C(=O)C(C)C)CC3)N3CC(=O)N(c4ccc(Oc5ccccc5)cc4)CC3=O)n(C)c2c1	> 100000	859	15000	–
Cc1ccc2nc([C@H](CC3CCN(C(=O)C(C)C)CC3)N3C(=O)CN(c4ccc(Oc5ccccc5)cc4)C3=O)n(C)c2c1	–	< 0.001	–	AUC(0-t) at 6 h [3]: 182 ng·h/mL; bioavailability [13]: 2.76%; half-life ([4]; read-out: beta t1/2): 2.07 h; dose excreted [6]: 0.64%; Vd [8]: 8.9 L/kg; Tmax [9]: 0.5 h; concentration at 6 h [10]: 225 ng/g; Cmax [14]: 53.4 ng/mL; concentration at 6 h [11]: 135 ng/g; AUC(0-t) at 6 h [12]: 146 ng·h/mL
Cc1ccc2nc([C@H](CC3CCN(C(=O)C(C)C)CC3)N3C(=O)CN(c4ccc(Oc5ccc(F)cc5)cc4)C3=O)n(C)c2c1	> 100000	0.05	35	–
Cc1ccc2nc([C@H](Cc3ccc(Cl)cc3)N3C(=O)CN(c4ccc(Oc5ccccc5)cc4)C3=O)n(C)c2c1	> 100000	> 20000	> 400000	–
Cc1ccc2c(c1)nc([C@H](CC1CCN(C(=O)C(C)C)CC1)N1C(=O)CN(c3ccc(Oc4ccccc4)cc3)C1=O)n2C	> 100000	< 0.001	51	–
